Measured values reported in paper PMC9653409, “Generative deep learning enables the discovery of a potent and selective RIPK1 inhibitor” (Nature Communications, 2022).

What was measured:
Experiment in all cases: Kinase inhibitory activity profiling of RI-962@10 µM (406 kinases, Eurofins)
Format in all cases: biochemical
[1] = target: panel of human kinases (kinase named in endpoint) (Homo sapiens, UniProt P48730); settings: 10 µM; read-out: Activity (%), CK1δ(h)
How it was run: (§1)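 Radiometric filter-binding kinase assays: enzyme preincubated 15 min with compound in 8 mM MOPS pH 7.0, 0.2 mM EDTA, 250 μM peptide substrate, 10 mM magnesium acetate, 10 μM [γ-33P]-ATP. Reaction started with Mg/ATP, run 40 min at room temperature, stopped with phosphoric acid; 33P incorporation read by scintillation counting. Other kinases by similar protocols.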

[2] = target: panel of human kinases (kinase named in endpoint) (Homo sapiens, UniProt Q9Y3S1); settings: 10 µM; read-out: Activity (%), WNK2(h)
How it was run: as §1

[3] = target: panel of human kinases (kinase named in endpoint) (Homo sapiens, UniProt Q8IW41); settings: 10 µM; read-out: Activity (%), PRAK(h)
Chain of panel of human kinases (kinase named in endpoint) (Homo sapiens, UniProt Q8IW41) (Q8IW41 whole entry): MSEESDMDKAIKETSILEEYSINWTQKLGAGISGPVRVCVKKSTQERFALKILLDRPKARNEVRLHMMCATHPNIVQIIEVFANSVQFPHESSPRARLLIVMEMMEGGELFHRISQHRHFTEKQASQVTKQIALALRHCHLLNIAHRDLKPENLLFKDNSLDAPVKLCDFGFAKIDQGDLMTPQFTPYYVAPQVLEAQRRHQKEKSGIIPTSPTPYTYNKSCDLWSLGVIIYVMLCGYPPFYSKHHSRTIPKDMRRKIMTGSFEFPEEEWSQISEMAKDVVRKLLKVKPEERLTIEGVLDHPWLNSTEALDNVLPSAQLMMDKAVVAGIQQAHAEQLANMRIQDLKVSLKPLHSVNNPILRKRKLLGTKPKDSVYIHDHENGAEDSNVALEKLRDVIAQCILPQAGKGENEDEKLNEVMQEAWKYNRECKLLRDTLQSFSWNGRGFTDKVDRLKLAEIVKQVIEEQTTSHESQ
How it was run: as §1

[4] = target: panel of human kinases (kinase named in endpoint) (Homo sapiens, UniProt Q04771); settings: 10 µM; read-out: Activity (%), ALK2(h)
How it was run: as §1

[5] = target: panel of human kinases (kinase named in endpoint) (Homo sapiens, UniProt Q05655); settings: 10 µM; read-out: Activity (%), PKCδ(h)
How it was run: as §1

[6] = target: panel of human kinases (kinase named in endpoint) (Homo sapiens, UniProt P51956); settings: 10 µM; read-out: Activity (%), NEK3(h)
How it was run: as §1

[7] = target: panel of human kinases (kinase named in endpoint) (Homo sapiens, UniProt Q8TDC3); settings: 10 µM; read-out: Activity (%), BrSK1(h)
Chain of panel of human kinases (kinase named in endpoint) (Homo sapiens, UniProt Q8TDC3) (Q8TDC3 whole entry): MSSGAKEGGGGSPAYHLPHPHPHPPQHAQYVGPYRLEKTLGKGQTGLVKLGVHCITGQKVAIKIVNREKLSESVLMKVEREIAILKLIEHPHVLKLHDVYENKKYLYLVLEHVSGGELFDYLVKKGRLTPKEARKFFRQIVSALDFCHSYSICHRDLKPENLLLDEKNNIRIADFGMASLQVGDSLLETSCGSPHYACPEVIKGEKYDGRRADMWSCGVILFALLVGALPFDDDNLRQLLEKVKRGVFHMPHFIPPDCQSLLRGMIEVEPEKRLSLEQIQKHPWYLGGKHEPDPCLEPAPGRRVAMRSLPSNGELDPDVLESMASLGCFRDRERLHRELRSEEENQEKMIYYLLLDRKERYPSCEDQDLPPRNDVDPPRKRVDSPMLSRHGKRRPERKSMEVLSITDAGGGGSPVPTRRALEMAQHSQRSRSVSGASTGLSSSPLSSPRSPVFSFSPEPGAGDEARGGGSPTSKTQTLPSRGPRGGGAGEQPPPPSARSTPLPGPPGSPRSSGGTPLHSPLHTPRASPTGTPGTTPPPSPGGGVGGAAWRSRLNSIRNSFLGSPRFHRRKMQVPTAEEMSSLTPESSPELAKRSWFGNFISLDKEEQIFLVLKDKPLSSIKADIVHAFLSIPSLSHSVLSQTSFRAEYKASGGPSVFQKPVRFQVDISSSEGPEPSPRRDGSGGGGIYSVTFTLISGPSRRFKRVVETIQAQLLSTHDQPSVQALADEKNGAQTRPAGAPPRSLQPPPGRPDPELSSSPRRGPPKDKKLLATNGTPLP
How it was run: as §1

[8] = target: panel of human kinases (kinase named in endpoint) (Homo sapiens, UniProt Q14012); settings: 10 µM; read-out: Activity (%), CaMKI(h)
How it was run: as §1

[9] = target: panel of human kinases (kinase named in endpoint) (Homo sapiens, UniProt Q16654); settings: 10 µM; read-out: Activity (%), PDHK4(h)
How it was run: as §1

[10] = target: panel of human kinases (kinase named in endpoint) (Homo sapiens, UniProt Q16513); settings: 10 µM; read-out: Activity (%), PRK2(h)
Chain of panel of human kinases (kinase named in endpoint) (Homo sapiens, UniProt Q16513) (Q16513 whole entry): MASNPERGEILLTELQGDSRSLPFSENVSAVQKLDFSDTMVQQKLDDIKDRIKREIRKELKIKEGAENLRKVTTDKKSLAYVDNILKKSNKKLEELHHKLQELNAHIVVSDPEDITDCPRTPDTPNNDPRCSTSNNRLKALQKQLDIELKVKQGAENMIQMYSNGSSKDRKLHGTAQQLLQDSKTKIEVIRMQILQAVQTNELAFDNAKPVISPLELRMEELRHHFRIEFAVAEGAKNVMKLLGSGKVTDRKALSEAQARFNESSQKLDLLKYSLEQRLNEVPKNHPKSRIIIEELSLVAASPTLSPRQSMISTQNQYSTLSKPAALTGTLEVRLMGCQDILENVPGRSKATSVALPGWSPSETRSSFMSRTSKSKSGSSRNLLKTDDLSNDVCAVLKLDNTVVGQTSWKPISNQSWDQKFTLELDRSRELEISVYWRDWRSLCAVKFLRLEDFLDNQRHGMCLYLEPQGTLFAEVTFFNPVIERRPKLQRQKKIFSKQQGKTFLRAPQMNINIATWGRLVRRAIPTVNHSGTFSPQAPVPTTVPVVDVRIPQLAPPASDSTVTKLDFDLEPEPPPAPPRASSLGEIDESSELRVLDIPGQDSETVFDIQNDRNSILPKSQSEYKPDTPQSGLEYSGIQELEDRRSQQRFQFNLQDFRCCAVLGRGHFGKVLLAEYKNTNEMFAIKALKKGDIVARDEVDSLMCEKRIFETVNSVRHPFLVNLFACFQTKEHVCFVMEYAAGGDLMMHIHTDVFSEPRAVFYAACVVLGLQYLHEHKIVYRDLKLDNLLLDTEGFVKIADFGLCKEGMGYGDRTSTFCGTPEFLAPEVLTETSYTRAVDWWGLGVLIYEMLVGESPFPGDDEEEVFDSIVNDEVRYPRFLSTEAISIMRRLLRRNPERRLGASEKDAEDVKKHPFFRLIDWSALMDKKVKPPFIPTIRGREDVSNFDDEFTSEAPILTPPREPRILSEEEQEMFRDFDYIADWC
How it was run: as §1

[11] = target: panel of human kinases (kinase named in endpoint) (Homo sapiens, UniProt O75116); settings: 10 µM; read-out: Activity (%), ROCK-II(h)
How it was run: as §1

[12] = target: panel of human kinases (kinase named in endpoint) (Homo sapiens, UniProt Q96NX5); settings: 10 µM; read-out: Activity (%), CaMKIγ(h)
Chain of panel of human kinases (kinase named in endpoint) (Homo sapiens, UniProt Q96NX5) (Q96NX5 whole entry): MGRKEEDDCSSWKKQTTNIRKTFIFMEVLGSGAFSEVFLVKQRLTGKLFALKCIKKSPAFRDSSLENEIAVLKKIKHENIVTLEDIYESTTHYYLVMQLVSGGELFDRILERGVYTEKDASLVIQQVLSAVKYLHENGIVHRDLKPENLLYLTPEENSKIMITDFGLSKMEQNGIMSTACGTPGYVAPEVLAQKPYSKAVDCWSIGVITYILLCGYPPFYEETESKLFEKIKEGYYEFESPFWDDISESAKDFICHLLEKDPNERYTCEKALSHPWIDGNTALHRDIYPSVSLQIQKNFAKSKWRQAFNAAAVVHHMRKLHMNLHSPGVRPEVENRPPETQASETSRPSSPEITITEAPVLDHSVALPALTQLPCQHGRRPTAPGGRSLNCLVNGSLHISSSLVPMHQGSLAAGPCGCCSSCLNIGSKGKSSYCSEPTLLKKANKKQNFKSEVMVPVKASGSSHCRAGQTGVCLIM
How it was run: as §1

[13] = target: panel of human kinases (kinase named in endpoint) (Homo sapiens, UniProt P45984); settings: 10 µM; read-out: Activity (%), JNK2α2(h)
How it was run: as §1

[14] = target: panel of human kinases (kinase named in endpoint) (Homo sapiens, UniProt P00519); settings: 10 µM; read-out: Activity (%), Abl(h)
How it was run: as §1

[15] = target: panel of human kinases (kinase named in endpoint) (Homo sapiens, UniProt P0C1S8); settings: 10 µM; read-out: Activity (%), Wee1B(h)
How it was run: as §1

[16] = target: panel of human kinases (kinase named in endpoint) (Homo sapiens, UniProt Q99759); settings: 10 µM; read-out: Activity (%), MEKK3(h)
How it was run: as §1

[17] = target: panel of human kinases (kinase named in endpoint) (Homo sapiens, UniProt Q7L7X3); settings: 10 µM; read-out: Activity (%), TAO1(h)
How it was run: as §1

[18] = target: panel of human kinases (kinase named in endpoint) (Homo sapiens, UniProt Q92918); settings: 10 µM; read-out: Activity (%), HPK1(h)
How it was run: as §1

[19] = target: panel of human kinases (kinase named in endpoint) (Homo sapiens, UniProt Q13131); settings: 10 µM; read-out: Activity (%), AMPKα1(h)
How it was run: as §1

[20] = target: panel of human kinases (kinase named in endpoint) (Homo sapiens, UniProt Q05513); settings: 10 µM; read-out: Activity (%), PKCζ(h)
How it was run: as §1

[21] = target: panel of human kinases (kinase named in endpoint) (Homo sapiens, UniProt Q14164); settings: 10 µM; read-out: Activity (%), IKKε(h)
How it was run: as §1

[22] = target: panel of human kinases (kinase named in endpoint) (Homo sapiens, UniProt Q9Y2U5); settings: 10 µM; read-out: Activity (%), MEKK2(h)
Chain of panel of human kinases (kinase named in endpoint) (Homo sapiens, UniProt Q9Y2U5) (Q9Y2U5 whole entry): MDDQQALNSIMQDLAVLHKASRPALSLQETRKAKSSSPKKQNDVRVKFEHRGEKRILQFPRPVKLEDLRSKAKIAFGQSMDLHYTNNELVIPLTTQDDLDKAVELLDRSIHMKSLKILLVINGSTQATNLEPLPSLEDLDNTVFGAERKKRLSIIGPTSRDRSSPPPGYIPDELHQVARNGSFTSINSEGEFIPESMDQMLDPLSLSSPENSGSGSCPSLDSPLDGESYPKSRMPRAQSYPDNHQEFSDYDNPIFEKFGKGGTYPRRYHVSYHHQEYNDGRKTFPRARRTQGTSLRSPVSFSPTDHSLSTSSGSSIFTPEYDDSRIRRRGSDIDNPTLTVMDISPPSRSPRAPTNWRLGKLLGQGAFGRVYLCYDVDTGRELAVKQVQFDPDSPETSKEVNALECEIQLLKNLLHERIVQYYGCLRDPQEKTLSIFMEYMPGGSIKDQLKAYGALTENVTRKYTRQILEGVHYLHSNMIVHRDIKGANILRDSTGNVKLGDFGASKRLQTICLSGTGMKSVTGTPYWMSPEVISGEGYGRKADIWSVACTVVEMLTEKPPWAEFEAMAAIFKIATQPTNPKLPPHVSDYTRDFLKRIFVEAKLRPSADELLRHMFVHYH
How it was run: as §1

[23] = target: panel of human kinases (kinase named in endpoint) (Homo sapiens, UniProt Q04759); settings: 10 µM; read-out: Activity (%), PKCθ(h)
Chain of panel of human kinases (kinase named in endpoint) (Homo sapiens, UniProt Q04759) (Q04759 whole entry): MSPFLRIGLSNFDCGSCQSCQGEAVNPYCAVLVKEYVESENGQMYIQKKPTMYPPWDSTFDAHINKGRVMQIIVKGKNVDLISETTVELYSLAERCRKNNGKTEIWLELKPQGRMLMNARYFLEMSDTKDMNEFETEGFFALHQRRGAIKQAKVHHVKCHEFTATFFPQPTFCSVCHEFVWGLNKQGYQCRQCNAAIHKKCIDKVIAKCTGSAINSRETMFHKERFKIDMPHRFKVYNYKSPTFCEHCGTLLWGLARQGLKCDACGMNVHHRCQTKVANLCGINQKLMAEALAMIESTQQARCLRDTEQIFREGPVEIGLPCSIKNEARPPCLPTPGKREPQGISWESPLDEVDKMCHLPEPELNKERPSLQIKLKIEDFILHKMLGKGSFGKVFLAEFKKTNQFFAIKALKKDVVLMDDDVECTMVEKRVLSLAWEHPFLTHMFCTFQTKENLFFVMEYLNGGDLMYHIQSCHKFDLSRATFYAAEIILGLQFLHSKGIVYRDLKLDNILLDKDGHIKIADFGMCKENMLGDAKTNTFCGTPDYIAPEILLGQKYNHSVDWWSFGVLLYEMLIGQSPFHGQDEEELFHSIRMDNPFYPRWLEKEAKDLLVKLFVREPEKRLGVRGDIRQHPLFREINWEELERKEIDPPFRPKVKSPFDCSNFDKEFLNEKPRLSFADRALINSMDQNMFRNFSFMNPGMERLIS
How it was run: as §1

[24] = target: panel of human kinases (kinase named in endpoint) (Homo sapiens, UniProt Q00534); settings: 10 µM; read-out: Activity (%), CDK6/cyclinD3(h)
How it was run: as §1

[25] = target: panel of human kinases (kinase named in endpoint) (Homo sapiens, UniProt Q9UHD2); settings: 10 µM; read-out: Activity (%), TBK1(h)
Chain of panel of human kinases (kinase named in endpoint) (Homo sapiens, UniProt Q9UHD2) (Q9UHD2 whole entry): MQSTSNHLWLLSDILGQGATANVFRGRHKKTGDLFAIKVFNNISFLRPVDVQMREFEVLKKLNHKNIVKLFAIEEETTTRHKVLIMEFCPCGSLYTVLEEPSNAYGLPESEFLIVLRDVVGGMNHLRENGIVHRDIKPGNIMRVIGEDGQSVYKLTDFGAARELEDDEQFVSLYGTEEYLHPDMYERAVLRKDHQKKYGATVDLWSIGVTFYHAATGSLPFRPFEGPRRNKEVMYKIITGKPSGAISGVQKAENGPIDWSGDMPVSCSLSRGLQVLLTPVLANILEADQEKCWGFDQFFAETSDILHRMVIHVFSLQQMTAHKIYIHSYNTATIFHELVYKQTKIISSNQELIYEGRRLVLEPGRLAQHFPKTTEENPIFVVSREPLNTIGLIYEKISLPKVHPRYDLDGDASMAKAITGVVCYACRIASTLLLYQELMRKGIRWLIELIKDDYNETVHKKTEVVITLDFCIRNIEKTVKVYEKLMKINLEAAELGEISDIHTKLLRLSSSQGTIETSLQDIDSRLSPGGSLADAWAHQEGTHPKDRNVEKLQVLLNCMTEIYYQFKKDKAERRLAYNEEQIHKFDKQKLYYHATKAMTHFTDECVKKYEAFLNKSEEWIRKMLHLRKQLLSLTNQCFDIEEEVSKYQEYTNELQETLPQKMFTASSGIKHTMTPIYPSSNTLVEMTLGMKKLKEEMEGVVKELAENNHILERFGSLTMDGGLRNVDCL
How it was run: as §1

[26] = target: panel of human kinases (kinase named in endpoint) (Homo sapiens, UniProt P04626); settings: 10 µM; read-out: Activity (%), ErbB2(h)
How it was run: as §1

CC(C)C(=O)Nc1nc2cc(-c3ccc4c(c3)c(C(=O)NC(C)c3ccccc3)cn4C)ccn2n1 (centres unmarked) [RI-962]
activity at 10 µM [1]: 108% | activity at 10 µM [2]: 79% | activity at 10 µM [3]: 64% | activity at 10 µM [4]: 104% | activity at 10 µM [5]: 90% | activity at 10 µM [6]: 103% | activity at 10 µM [7]: 100% | activity at 10 µM [8]: 92% | activity at 10 µM [9]: 75% | activity at 10 µM [10]: 101% | activity at 10 µM [11]: 90% | activity at 10 µM [12]: 113% | activity at 10 µM [13]: 71% | activity at 10 µM [14]: 85% | activity at 10 µM [15]: 95% | activity at 10 µM [16]: 93% | activity at 10 µM [17]: 81% | activity at 10 µM [18]: 92% | activity at 10 µM [19]: 93% | activity at 10 µM [20]: 119% | activity at 10 µM [21]: 103% | activity at 10 µM [22]: 98% | activity at 10 µM [23]: 131% | activity at 10 µM [24]: 92% | activity at 10 µM [25]: 90% | activity at 10 µM [26]: 104%
